We go through 9 compounds from US20260022143A1, “Cyclic Peptide Inhibitors of IL-23” (JANSSEN PHARMACEUTICA NV, priority 2022, published 2026).

Structures are written as SMILES. Starred links: 1 amine or outer side, 2 acyl side, 3 side chain; linkers in the order of their positions; H or OH if unused. Positions of bridges follow the written chain, without caps; N, C: chain ends. Non-standard residues stand in square brackets, D forms with d. Residues, ends and D or L forms follow the SMILES beside them. *: point of attachment. Trp(7-(3-AcNH-Ph)) = CC(=O)Nc1cccc(-c2cccc3c(C[C@H](N)C(=O)O)c[nH]c23)c1; Me3N+(CH2)2O(CH2)2O(CH2)2CO = C[N+](C)(C)CCOCCOCCC(=O)*; CH2CH2OCH2CH2OCH2CH2NMe3+ = C[N+](C)(C)CCOCCOCC*; Trp(7-Me) = Cc1cccc2c(C[C@H](N)C(=O)O)c[nH]c12; Abu(4-yl) = O=C([C@H](CC[*:3])N[*:1])[*:2]; dLys(Me3) = C[N+](C)(C)CCCC[C@@H](N)C(=O)O; 3Pal(5-Me) = Cc1cncc(C[C@H](N)C(=O)O)c1; Dab(NMeAc) = CC(=O)N(C)CC[C@H](N)C(=O)O; 2Nal = N[C@@H](Cc1ccc2ccccc2c1)C(=O)O; AEF = NCCOc1ccc(C[C@H](N)C(=O)O)cc1; 3Pal = N[C@@H](Cc1cccnc1)C(=O)O; X14 = C[N+](C)(C)CCc1cn(CC*)nn1; Lys(Me) = CNCCCC[C@H](N)C(=O)O; Pen = CC(C)(S)[C@H](N)C(=O)O; αMeC = C[C@](N)(CS)C(=O)O; Thp = NC1(C(=O)O)CCOCC1; X3 = C[N+](C)(C)CCCCC*; Sar = CNCC(=O)O

One data set addresses T1, IL-23R (Homo sapiens, UniProt Q5VWK5).
T1 construct: host or cells: HEK293
T1 sequence (Q5VWK5 24-629): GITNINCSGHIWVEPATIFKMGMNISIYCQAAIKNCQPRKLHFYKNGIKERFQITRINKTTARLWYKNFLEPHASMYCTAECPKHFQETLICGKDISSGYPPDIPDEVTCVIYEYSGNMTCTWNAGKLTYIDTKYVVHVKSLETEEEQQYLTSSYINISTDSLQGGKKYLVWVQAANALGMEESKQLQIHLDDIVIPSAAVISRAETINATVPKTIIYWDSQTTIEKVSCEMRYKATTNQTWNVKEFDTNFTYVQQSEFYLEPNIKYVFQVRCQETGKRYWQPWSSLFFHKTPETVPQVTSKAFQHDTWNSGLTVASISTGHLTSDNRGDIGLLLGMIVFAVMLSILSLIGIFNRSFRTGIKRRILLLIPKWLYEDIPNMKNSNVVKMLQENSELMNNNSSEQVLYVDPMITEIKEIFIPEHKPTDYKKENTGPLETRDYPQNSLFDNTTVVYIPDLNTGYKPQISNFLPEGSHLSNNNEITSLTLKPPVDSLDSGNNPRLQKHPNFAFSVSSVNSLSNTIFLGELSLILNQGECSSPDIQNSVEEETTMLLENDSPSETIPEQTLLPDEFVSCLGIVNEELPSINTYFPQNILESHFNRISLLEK
Briefly: IL23R Reporter Assay. It is filed as cell-based. The conditions noted are these: HEK293 cells containing IL-23R, IL-12RP1 and STAT-inducible firefly luciferase reporter; 10 ng/mL IL-23 (EC90); 5 h at 37° C.; read-out: IL23R Reporter Assay.

Data set [1] in a line: Exposed Polar Surface Area (EPSA). The settings on record: SFC on Chirex 3014 column; sample 1 mM DMSO stock; read-out: EPSA. The class given is physicochemical. Summed up: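 EPSA, in Å^2, is read from SFC retention time through a linear relationship established with eight calibration standards. Separation uses a Chirex 3014 stationary phase, 35 °C, 14 MPa back pressure, and a 5–60% methanol/ammonium formate modifier gradient in CO2.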

On to `CC(=O)NCCCC[C@@H]1NC(=O)[C@H](Cc2c[nH]c3ccccc23)NC(=O)[C@H]([C@@H](C)O)NC(=O)[C@H](CC(N)=O)NC(=O)[C@@H](NC(=O)[C@@H](CCCNC(=N)N)NC(C)=O)CCSC[C@@](C)(C(=O)N[C@@H](Cc2ccc(OCCCCC[N+](C)(C)C)cc2)C(=O)N[C@@H](Cc2ccc3ccccc3c2)C(=O)NC2(C(=O)N[C@@H](CCCCNC(C)=O)C(=O)N[C@@H](CC(N)=O)C(=O)N[C@@H](Cc3cccnc3)C(=O)N(C)CC(N)=O)CCOCC2)NC1=O` [compound 568, MeCO-r-Abu(1)-N-T-W-K(Ac)-aMeC(1)-TMAPF-2Nal-THP-K(Ac)-N-3Pya-Sar-CONH2] (Ac-[dR][Abu(4-yl)]NTWK(Ac)[αMeC]Y(X3)[2Nal][Thp]K(Ac)N[3Pal][Sar]-NH2; thioether 2-7), for which the IC50 on IL-23R came out at 390 nM. In data set [1], the EPSA was 174 A^2.

Take `CC(=O)N(C)CCCC[C@@H]1NC(=O)[C@H](Cc2c[nH]c3c(C)cccc23)NC(=O)[C@H]([C@@H](C)O)NC(=O)[C@H](CC(=O)N(C)C)NC(=O)[C@@H](NC(=O)CCOCCOCC[N+](C)(C)C)C(C)(C)SSC(C)(C)[C@@H](C(=O)N[C@@H](Cc2ccc(OCCN)cc2)C(=O)N[C@@H](Cc2ccc3ccccc3c2)C(=O)NC2(C(=O)N[C@@H](CCN(C)C(C)=O)C(=O)N[C@@H](CC(N)=O)C(=O)N[C@@H](Cc3cccnc3)C(=O)N(C)CC(=O)N(C)C)CCOCC2)NC1=O` [compound 177, cPEG3aCO-Pen(3)-N(N(Me)2)-T-7MeW-K(NMeAc)-Pen(3)-AEF-2Nal-THP-Dab(NMeAc)-N-3Pya-Sar-CON(Me)2] ({Me3N+(CH2)2O(CH2)2O(CH2)2CO}-[Pen]D(NMe2)T[Trp(7-Me)][Lys(Me)](Ac)[Pen][AEF][2Nal][Thp][Dab(NMeAc)]N[3Pal][Sar]-NMe2; disulfide 1-6): the IC50 on IL-23R was 2 nM. For the same compound, the EPSA in data set [1] was 149 A^2.

`CC(=O)NCCCC[C@@H]1NC(=O)[C@H](Cc2c[nH]c3ccccc23)NC(=O)[C@H]([C@@H](C)O)NC(=O)[C@H](CC(N)=O)NC(=O)[C@@H](NC(=O)[C@H](CCCNC(=N)N)NC(=O)CCOCCOCC[N+](C)(C)C)CCSC[C@@](C)(C(=O)N[C@@H](Cc2ccc(OCCCCC[N+](C)(C)C)cc2)C(=O)N[C@@H](Cc2ccc3ccccc3c2)C(=O)NC2(C(=O)N[C@@H](CCC(=O)O)C(=O)N[C@@H](CC(N)=O)C(=O)N[C@@H](Cc3cccnc3)C(=O)N(C)CC(N)=O)CCOCC2)NC1=O` [compound 516, cPEG3aCO-r-Abu(1)-N-T-W-K(Ac)-aMeC(1)-TMAPF-2Nal-THP-E-N-3Pya-Sar-CONH2] ({Me3N+(CH2)2O(CH2)2O(CH2)2CO}-R[Abu(4-yl)]NTWK(Ac)[αMeC]Y(X3)[2Nal][Thp]EN[3Pal][Sar]-NH2; thioether 2-7): the IC50 at IL-23R was found to be 50 nM. In addition, in data set [1], the EPSA came out at 237 A^2.

In the case of `CC(=O)N(C)CCCC[C@@H]1NC(=O)[C@H](Cc2c[nH]c3c(C)cccc23)NC(=O)[C@H]([C@@H](C)O)NC(=O)[C@H](CC(=O)N(C)C)NC(=O)[C@@H](NC(=O)CCOCCOCC[N+](C)(C)C)C(C)(C)SSC(C)(C)[C@@H](C(=O)N[C@@H](Cc2ccc(OCCOCCOCC[N+](C)(C)C)cc2)C(=O)N[C@@H](Cc2ccc3ccccc3c2)C(=O)NC2(C(=O)N[C@@H](Cc3c[nH]c4ccccc34)C(=O)N[C@@H](CC(N)=O)C(=O)N[C@@H](Cc3cccnc3)C(=O)N(C)CC(=O)N(C)C)CCOCC2)NC1=O` [compound 470, cPEG3aCO-Pen(3)-N(N(Me)2)-T-7MeW-K(NMeAc)-Pen(3)-APEG3F-2Nal-THP-W-N-3Pya-Sar-CON(Me)2] ({Me3N+(CH2)2O(CH2)2O(CH2)2CO}-[Pen]D(NMe2)T[Trp(7-Me)][Lys(Me)](Ac)[Pen]Y(CH2CH2OCH2CH2OCH2CH2NMe3+)[2Nal][Thp]WN[3Pal][Sar]-NMe2; disulfide 1-6), on IL-23R, the IC50 worked out at 1.2 nM. In data set [1], the EPSA came to 160 A^2.

Regarding `CC(=O)NCCCC[C@@H]1NC(=O)[C@H](Cc2c[nH]c3c(C)cccc23)NC(=O)[C@H]([C@@H](C)O)NC(=O)[C@H](CC(N)=O)NC(=O)[C@@H](NC(=O)[C@@H](CCCNC(=N)N)NC(C)=O)C(C)(C)SSC(C)(C)[C@@H](C(=O)N[C@@H](Cc2ccc(OCCCCC[N+](C)(C)C)cc2)C(=O)N[C@@H](Cc2ccc3ccccc3c2)C(=O)NC2(C(=O)N[C@@H](CCCCNC(C)=O)C(=O)N[C@@H](CC(N)=O)C(=O)N[C@@H](Cc3cncc(C)c3)C(=O)N(C)CC(N)=O)CCOCC2)NC1=O` [compound 532, MeCO-r-Pen(3)-N-T-7MeW-K(Ac)-Pen(3)-TMAPF-2Nal-THP-K(Ac)-N-5MePyridinAla-Sar-CONH2] (Ac-[dR][Pen]NT[Trp(7-Me)]K(Ac)[Pen]Y(X3)[2Nal][Thp]K(Ac)N[3Pal(5-Me)][Sar]-NH2; disulfide 2-7), the IC50 on IL-23R was 0.9 nM. The EPSA in data set [1] amounted to 171 A^2.

Turning to `CC(=O)NCCCC[C@@H]1NC(=O)[C@H](Cc2c[nH]c3c(C)cccc23)NC(=O)[C@H]([C@@H](C)O)NC(=O)[C@H](CC(N)=O)NC(=O)[C@@H](NC(=O)CCOCCOCC[N+](C)(C)C)C(C)(C)SSC(C)(C)[C@@H](C(=O)N[C@@H](Cc2ccc(OCCCCC[N+](C)(C)C)cc2)C(=O)N[C@@H](Cc2ccc3ccccc3c2)C(=O)NC2(C(=O)N[C@@H](CCCCNC(C)=O)C(=O)N[C@@H](CC(N)=O)C(=O)N[C@@H](Cc3cccnc3)C(=O)N(C)CC(N)=O)CCOCC2)NC1=O` [compound 428, cPEG3aCO-Pen(3)-N-T-7MeW-K(Ac)-Pen(3)-TMAPF-2Nal-THP-K(Ac)-N-3Pya-Sar-CONH2] ({Me3N+(CH2)2O(CH2)2O(CH2)2CO}-[Pen]NT[Trp(7-Me)]K(Ac)[Pen]Y(X3)[2Nal][Thp]K(Ac)N[3Pal][Sar]-NH2; disulfide 1-6), at IL-23R, the IC50 is 3.5 nM. For the same compound, in data set [1], the EPSA was 161 A^2.

Consider `CC(=O)NCCCC[C@@H]1NC(=O)[C@H](Cc2c[nH]c3c(-c4cccc(NC(C)=O)c4)cccc23)NC(=O)[C@H]([C@@H](C)O)NC(=O)[C@H](CC(N)=O)NC(=O)[C@@H](NC(=O)[C@@H](CCCC[N+](C)(C)C)NC(C)=O)C(C)(C)SSC(C)(C)[C@@H](C(=O)N[C@@H](Cc2ccc(OCCN)cc2)C(=O)N[C@@H](Cc2ccc3ccccc3c2)C(=O)NC2(C(=O)N[C@@H](CCC(=O)O)C(=O)N[C@@H](CC(N)=O)C(=O)N[C@@H](Cc3cccnc3)C(=O)N(C)CC(N)=O)CCOCC2)NC1=O` [compound 461] (Ac-[dLys(Me3)][Pen]NT[Trp(7-(3-AcNH-Ph))]K(Ac)[Pen][AEF][2Nal][Thp]EN[3Pal][Sar]-NH2; disulfide 2-7 (inferred)), for which the IC50 on IL-23R amounted to 1.4 nM. Also, in data set [1], the EPSA turned out to be 192 A^2.

For the compound `CC(=O)N(C)CCCC[C@@H]1NC(=O)[C@H](Cc2c[nH]c3c(C)cccc23)NC(=O)[C@H]([C@@H](C)O)NC(=O)[C@H](CC(=O)N(C)C)NC(=O)[C@@H](NC(=O)CCOCCOCC[N+](C)(C)C)C(C)(C)SSC(C)(C)[C@@H](C(=O)N[C@@H](Cc2ccc(OCCn3cc(CC[N+](C)(C)C)nn3)cc2)C(=O)N[C@@H](Cc2ccc3ccccc3c2)C(=O)NC2(C(=O)N[C@@H](CCCCN(C)C(C)=O)C(=O)N[C@@H](CC(N)=O)C(=O)N[C@@H](Cc3cccnc3)C(=O)N(C)CC(=O)N(C)C)CCOCC2)NC1=O` [compound 286, cPEG3aCO-Pen(3)-N(N(Me)2)-T-7MeW-K(NMeAc)-Pen(3)-Y(OTzlCh)-2Nal-THP-K(NMeAc)-N-3Pya-Sar-CON(Me)2] ({Me3N+(CH2)2O(CH2)2O(CH2)2CO}-[Pen]D(NMe2)T[Trp(7-Me)][Lys(Me)](Ac)[Pen]Y(X14)[2Nal][Thp][Lys(Me)](Ac)N[3Pal][Sar]-NMe2; disulfide 1-6), the IC50 on IL-23R turned out to be 3.2 nM. In addition, in data set [1], the EPSA is 149 A^2.

For the compound `CC(=O)NCCCC[C@@H]1NC(=O)[C@H](Cc2c[nH]c3c(C)cccc23)NC(=O)[C@H]([C@@H](C)O)NC(=O)[C@H](CC(N)=O)NC(=O)[C@@H](NC(=O)C(COCCOCC[N+](C)(C)C)NC(C)=O)C(C)(C)SSC(C)(C)[C@@H](C(=O)N[C@@H](Cc2ccc(OCCCCC[N+](C)(C)C)cc2)C(=O)N[C@@H](Cc2ccc3ccccc3c2)C(=O)NC2(C(=O)N[C@@H](CCCCNC(C)=O)C(=O)N[C@@H](CC(N)=O)C(=O)N[C@@H](Cc3cccnc3)C(=O)N(C)CC(N)=O)CCOCC2)NC1=O` (mixture of isomers) [compound 556, MeCO-APEG2Ser(RS)-Pen(3)-N-T-7MeW-K(Ac)-Pen(3)-TMAPF-2Nal-THP-K(Ac)-N-3Pya-Sar-CONH2], the IC50 at IL-23R is 5.9 nM. Besides, in data set [1], the EPSA amounted to 163 A^2.
